Broadly, the Ki is a dissociation constant, usually derived from enzyme kinetics or from competition with a known ligand. Higher therefore signals a looser hold on the target.

Each structure is given as a SMILES string.

This test addresses T1, 5-hydroxytryptamine receptor 1A (Rattus norvegicus, UniProt P19327).
T1 sequence (P19327 whole entry): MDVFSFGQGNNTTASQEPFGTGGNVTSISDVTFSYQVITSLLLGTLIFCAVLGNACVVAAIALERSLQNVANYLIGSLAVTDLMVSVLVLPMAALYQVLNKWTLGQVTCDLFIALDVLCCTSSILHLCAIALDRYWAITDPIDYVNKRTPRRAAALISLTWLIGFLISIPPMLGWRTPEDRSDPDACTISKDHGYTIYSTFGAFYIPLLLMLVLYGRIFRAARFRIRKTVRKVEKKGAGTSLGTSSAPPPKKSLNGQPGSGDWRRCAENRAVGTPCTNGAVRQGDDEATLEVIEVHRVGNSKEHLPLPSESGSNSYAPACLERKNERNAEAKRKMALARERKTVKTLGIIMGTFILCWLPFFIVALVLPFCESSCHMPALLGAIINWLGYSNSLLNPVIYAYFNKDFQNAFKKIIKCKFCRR
Description: Binding affinity towards 5-hydroxytryptamine 1A receptor using [3H]8-OH-DPAT as radioligand.

`CN1CC=C(c2c[nH]c3ccc(Br)cc23)CC1` showed a Ki of 11 nM.
The figure for `CCCN1CC=C(c2c[nH]c3ccc(NC(C)=O)cc23)CC1` is 37 nM; for `CN1CC=C(c2c[nH]c3ccc(-c4ccccn4)cc23)CC1` it is 25.1 nM; for `CCN1CC=C(c2c[nH]c3ccc(C(=O)OC)cc23)CC1` it is 384 nM.
For the molecule `CN1CC=C(c2cn(Cc3ccccc3)c3ccccc23)CC1`, the affinity corresponds to a Ki of 10000 nM.
Molecule `CN1CC=C(c2c[nH]c3ccc(C4OCCO4)cc23)CC1` gave a Ki of 87.9 nM.
Molecule `CN1CC=C(c2c[nH]c3ccc(C#N)cc23)CC1` gave an inhibition constant (Ki) of 55 nM.
Consider `CN1CC=C(c2c[nH]c3ccccc23)CC1`, for which the Ki is 146 nM. Against the preceding molecule, the Ki is about 2.7-fold higher.
As for `CCCN1CC=C(c2c[nH]c3ccc(C#N)cc23)CC1`, the figure is 303 nM.
The figure for `CN1CC=C(c2c[nH]c3ccc(-c4ccc(F)cc4)cc23)CC1` is 69 nM.
As for `Cc1ccc2[nH]cc(C3=CCN(C)CC3)c2c1`, the figure is 146 nM.
The molecule `CC(=O)c1ccc2[nH]cc(C3=CCN(C)CC3)c2c1` had an inhibition constant (Ki) of 23 nM.
The molecule `CN1CC=C(c2c[nH]c3ccc(C(C)(C)O)cc23)CC1` showed a Ki of 187 nM.
In turn, `CN1CC=C(c2c[nH]c3ccc(S(C)(=O)=O)cc23)CC1` gave a Ki of 188 nM. The Ki values of the last two molecules are within 1.5-fold of each other.
`CN1CC=C(c2c[nH]c3ccc(-c4ccsc4)cc23)CC1` showed a Ki of 25.1 nM.
The figure for `CCCN1CC=C(c2c[nH]c3ccccc23)CC1` is 556 nM.
The figure for `COc1ccc2[nH]cc(C3CCN(C)CC3)c2c1` is 138 nM; for `CCCN1CC=C(c2c[nH]c3ccc(C(N)=O)cc23)CC1` it is 17 nM; for `CN1CC=C(c2c[nH]c3ccc(-c4cccs4)cc23)CC1` it is 19 nM.
For `CN1CC=C(c2c[nH]c3ccc(O)cc23)CC1`, the Ki was 61.7 nM. This Ki lies about 3.2-fold higher than the previous one.
The figure for `CN1CCC(c2c[nH]c3ccccc23)(c2c[nH]c3ccccc23)CC1` is 550 nM; for `CN1CC=C(c2c[nH]c3ccc(-c4cccnc4)cc23)CC1` it is 200 nM; for `CN1CC=C(c2c[nH]c3ccc(NS(C)(=O)=O)cc23)CC1` it is 692 nM.
`CC(=O)Oc1ccc2[nH]cc(C3=CCN(C)CC3)c2c1` showed an inhibitory constant (Ki) of 81.3 nM.
On to `CN1CC=C(c2c[nH]c3ccc([N+](=O)[O-])cc23)CC1`, for which the affinity, expressed as Ki, was 21.1 nM.
Molecule `CC(=O)Nc1ccc2[nH]cc(C3=CCN(C)CC3)c2c1` had a Ki of 77.6 nM.
The figure for `COc1ccc2[nH]cc(C3=CCN(C)CC3)c2c1` is 21.1 nM.
The figure for `CSc1ccc2[nH]cc(C3=CCN(C)CC3)c2c1` is 23 nM; for `CN1CC=C(c2c[nH]c3ccc(OCc4ccccc4)cc23)CC1` it is 111 nM.
The figure for `CN1CC=C(c2c[nH]c3ccc(C(N)=O)cc23)CC1` is 5.3 nM; for `COC(=O)c1ccc2[nH]cc(C3=CCN(C)CC3)c2c1` it is 19.4 nM; for `CN1CC=C(c2c[nH]c3ccc([S+](C)[O-])cc23)CC1` (stereo unspecified) it is 105 nM.
On to `CCCN1CC=C(c2c[nH]c3ccc(OC)cc23)CC1`, for which the affinity corresponds to a Ki of 363 nM. This Ki is about 3.5-fold higher than that of the molecule before.
As for `CN1CC=C(c2c[nH]c3ccc(-c4ccncc4)cc23)CC1`, the figure is 74.1 nM.
The figure for `CN1CC=C(c2c[nH]c3ccc([Si](C)(C)C)cc23)CC1` is 165 nM; for `CC(O)c1ccc2[nH]cc(C3=CCN(C)CC3)c2c1` (stereo unspecified) it is 221 nM.
As for `C1=C(c2c[nH]c3ccccc23)CCN(Cc2ccccc2)C1`, the figure is 923 nM.
The molecule `CN1CC=C(c2c[nH]c3ccc(-c4ccccc4)cc23)CC1` gave an inhibition constant (Ki) of 55 nM.
As for `COc1ccc2[nH]c(C)c(C3=CCN(C)CC3)c2c1`, the figure is 345 nM.
The molecule `CN1CC=C(c2c[nH]c3ccc(CO)cc23)CC1` showed an inhibitory constant (Ki) of 126 nM.
`CN1CCC(c2c[nH]c3ccccc23)CC1` had a Ki of 513 nM.
As for `CN1CC=C(c2c[nH]c3ccc(Cl)cc23)CC1`, the figure is 189 nM; as for `CCOC(=O)c1ccc2[nH]cc(C3=CCN(C)CC3)c2c1`, 36.1 nM; as for `O=[N+]([O-])c1ccc2[nH]cc(C3=CCNCC3)c2c1`, 64.6 nM.
As for `CN1CC=C(c2c[nH]c3ccc(N4C(=O)c5ccccc5C4=O)cc23)CC1`, the figure is 377 nM; as for `C1=C(c2c[nH]c3ccccc23)CCNC1`, 189 nM.

Source of the values: ChEMBL document CHEMBL1126551, “Three-dimensional quantitative structure-activity relationships of 5-HT receptor binding data for tetrahydropyridinylindole derivatives: a comparison of the Hansch and CoMFA methods” (J Med Chem, 1993).
